In US20240002388A1, “PYRIMIDINONE COMPOUNDS AND USES THEREOF” (HUTCHISON MEDIPHARMA LIMITED, priority 2020, published 2024):
pIC50: −log10 of the molar value.

tested on: L929 cell line (mouse fibroblastoma cell line); experiment: L929 cell viability assay (mTNF-α + Z-VAD-FMK induced necroptosis); format: cell-based; conditions: Mus musculus, L929, 20 h, L929 cells, mTNF-α 0.1 μg/mL + Z-VAD-FMK 5 μM, CellTiter-Glo
Protocol: L929 cell line (mouse fibroblastoma cell line): purchased from ATCC (American Type Culture Collection) Cell Bank, cultured in 5% CO2, 37° C. incubator, and MEM medium which contains L-Glutamine, with 10% FBS was used. • MEM medium: GIBCO, Cat #11095080; • Fetal bovine serum (FBS): GIBCO, Cat #10099-141C; • Dimethyl sulfoxide (DMSO): Sigma, Cat #D2650; • 0.25% Trypsin-EDTA: GIBCO, Cat #25200072; • Recombinant Mouse TNF-alpha Protein (mTNF-α): R&D system, Cat #410-MT-050; • Pan-Caspase inhibitor (Z-VAD-FMK): Selleckchem, Cat #S7023; • CellTiter-Glo 2.0 Cell Viability Assay kit: Promega, Cat #G9242; • Microwell plate reader: Envision, Perkin Elmer; • 96-well plate: Corning, Cat #3917.
The L929 cells at the logarithmic phase were taken out, and the supernatant was discarded. After trypsinization and cell shedding, 10% FBS-containing medium was added for neutralization, and the supernatant was discarded after centrifugation. The cells were re-suspended using 10% FBS-containing medium, adjusted to 7×10^4 cells/ml, added to 96-well microplate at 70 μL/well, i.e., 4.9×10^3 cells/well. Then the plate was incubated in a 5% CO2, 37° C. cell incubator overnight.
After incubating overnight, the 96-well plate was taken out, the medium was discarded, and the plate was washed with 1% FBS-containing MEM medium. Then 1% FBS-containing MEM medium was added at 70 μL/well, and the plate was cultured in a 5% CO2, 37° C. cell incubator. After incubating for 1 hour, the test compound was diluted to the corresponding concentrations using DMSO with 3-fold serial dilution, then the corresponding concentration of DMSO diluted solution was diluted into 1% FBS-containing MEM medium, and 10 μL/well of the diluted test compound with different concentrations (final concentrations of test compound were 10, 3.33, 1.11, 0.37, 0.12, 0.04, 0.014 and 0.005 μM, while final concentration of DMSO was 0.3%) or 10 μL/well control solution (3% DMSO) were added to the cell culture system respectively, with the total volume being 80 μL/well. Then 10 μL of Z-VAD-FMK solution diluted with 1% FBS-containing MEM medium (final concentration of 5 μM) or 10 μL of control solution (2.5% DMSO) was added to each well, with the total volume being 90 μL/well. The plate was incubated in a 5% CO2, 37° C. cell culture incubator for 1 hour.
After incubating for 1 hour, 10 μL of recombinant mouse TNF-α protein solution diluted with 1% FBS-containing MEM medium (final concentration of 0.1 μg/mL) or 10 μL control solution (1% FBS-containing MEM medium) was added to each well. The plate was incubated in a 5% CO2, 37° C. cell culture incubator for 20 hours.
The cell culture plate was taken out from the incubator, and left to stand at room temperature for 30 minutes. Meanwhile, CellTiter-Glo viability assay kit was put from freezer to room temperature, and 50 μL of CellTiter-Glo reagent was added to all wells, the plate was shaken for 1 minutes, protected from light at room temperature for 10 minutes then read the plate on Envision to get the luminescence signal.
The 96-well plate in the dark was taken out, and the chemiluminescence was determined using the Envision microwell plate reader as the signal value of each well.
The mean signal value of the wells of the mixed solution of recombinant mouse TNF-alpha protein (final concentration of 0.1 μg/mL) and Pan-Caspase inhibitor (final concentration of 5 μM) was used as the lower value, and the mean signal value of the wells without stimulation was used as the upper value. According to the signal value of each well, the inhibition rate of each concentration of every compound was calculated, and the IC50 value of compound was obtained by Model 205 in XL-Fit 5.3 software (ID Business Solutions Limited).
Inhibition rate %=[(Luminescence readout of treated compound−Luminescence readout of positive control)/(Luminescence readout of negative control−Luminescence readout of positive control)]×100%, wherein

| SMILES | pIC50 |
| --- | --- |
| CC(C)n1cncc(-c2ccc(C3(NC(=O)c4ncc5cnn(C(C)C6CC6)c5n4)CC3)cc2)c1=O (racemic) [Compound 59, 1-(1-cyclopropylethyl)-N-(1-(4-(1-i-propyl-6-oxo-1,6-dihydropyrimidin-5-yl)phenyl)cyclopropyl)-1H-pyrazolo[3,4-d]pyrimidine-6-carboxamide] | 7.77 |
| CC(C)n1ncc2cnc(C(=O)NC3(c4ccc(-c5cncn([C@H](C)C(F)(F)F)c5=O)cc4F)CC3)nc21 (stereo in doubt) [Compound 46] | 7.72 |
| CC(C)n1ncc2cnc(C(=O)NC3(c4ccc(-c5cncn([C@@H](C)C(F)(F)F)c5=O)cc4F)CC3)nc21 (stereo in doubt) [Compound 47] | 7.62 |
| CC(C)n1ncc2cnc(C(=O)NC3(c4ccc(-c5cncn(C6CCOC6)c5=O)cc4)CC3)nc21 (stereo in doubt) [Compound 80, (R)-1-i-propyl-N-(1-(4-(6-oxo-1-(tetrahydrofuran-3-yl)-1,6-dihydropyrimidin-5-yl)phenyl)cyclopropyl)-1H-pyrazolo[3,4-d]pyrimidine-6-carboxamide] | 6.53 |
| CC(C)n1ncc2cnc(C(=O)NC3(c4ccc(-c5cncn(C6CCOC6)c5=O)cc4)CC3)nc21 (stereo in doubt) [Compound 81, (S)-1-i-propyl-N-(1-(4-(6-oxo-1-(tetrahydrofuran-3-yl)-1,6-dihydropyrimidin-5-yl)phenyl)cyclopropyl)-1H-pyrazolo[3,4-d]pyrimidine-6-carboxamide] | 6.59 |
| CC(C#N)n1cncc(-c2ccc(C3(NC(=O)c4ncc5cnn(C(C)C)c5n4)CC3)cc2)c1=O (stereo in doubt) [Compound 82, (R)—N-(1-(4-(1-(1-cyanoethyl)-6-oxo-1,6-dihydropyrimidin-5-yl)phenyl)cyclopropyl)-1-i-propyl-1H-pyrazolo[3,4-d]pyrimidine-6-carboxamide] | 6.44 |
| CC(C#N)n1cncc(-c2ccc(C3(NC(=O)c4ncc5cnn(C(C)C)c5n4)CC3)cc2)c1=O (stereo in doubt) [Compound 83, (S)—N-(1-(4-(1-(1-cyanoethyl)-6-oxo-1,6-dihydropyrimidin-5-yl)phenyl)cyclopropyl)-1-i-propyl-1H-pyrazolo[3,4-d]pyrimidine-6-carboxamide] | 6.70 |
| CC(C)n1ncc2cnc(C(=O)NC3(c4ccc(-c5cncn(C)c5=O)cc4)CC3)nc21 [Compound 1, 1-isopropyl-N-(1-(4-(1-methyl-6-oxo-1,6-dihydropyrimidin-5-yl)phenyl)cyclopropyl)-1H-pyrazolo[3,4-d]pyrimidine-6-carboxamide] | 5.90 |
| CC(C)n1ncc2cnc(C(=O)NC3(c4ccc(-c5cncn(C)c5=O)cn4)CC3)nc21 [Compound 2] | 5.13 |
| Cn1cncc(-c2ccc(C3(NC(=O)c4nnc(Cc5ccccc5)[nH]4)CC3)cc2)c1=O [Compound 3] | 5.37 |
| Cn1cncc(-c2ccc(C3(NC(=O)c4ncc5cnn(-c6ccccc6)c5n4)CC3)cc2)c1=O [Compound 4] | 6.14 |
| Cn1cncc(-c2ccc(C3(NC(=O)c4cc(Cc5ccccc5)on4)CC3)cc2)c1=O [Compound 5] | 5.60 |
| CC(C)Cc1nc(C(=O)NC2(c3ccc(-c4cncn(C)c4=O)cc3)CC2)ncc1Cl [Compound 6] | 6.52 |
| Cn1cncc(-c2ccc(C3(NC(=O)c4ncn(Cc5ccccc5)n4)CC3)cc2)c1=O [Compound 8] | 5.75 |
| Cn1cncc(-c2ccc(C3(NC(=O)c4noc(Cc5ccccc5)n4)CC3)cc2)c1=O [Compound 9] | 5.55 |
| Cn1cncc(-c2ccc(C3(NC(=O)c4ncc(Cc5ccccc5)o4)CC3)cc2)c1=O [Compound 10] | 6.17 |
| Cn1cncc(-c2ccc(C3(NC(=O)c4nnc(Cc5ccccc5)o4)CC3)cc2)c1=O [Compound 11] | 5.04 |
| CC(C)n1ncc2cnc(C(=O)NC3(c4ccc(-c5cncn(C6CC6)c5=O)cc4)CC3)nc21 [Compound 12] | 5.99 |
| CC(C)n1cncc(-c2ccc(C3(NC(=O)c4nnc(Cc5ccccc5)o4)CC3)cc2)c1=O [Compound 13] | 6.71 |
| CC(C)n1cncc(-c2ccc(C3(NC(=O)c4nc5n(n4)[C@@H](c4ccccc4)CC5)CC3)cc2)c1=O [Compound 15] | 5.63 |

| SMILES | pIC50 |
| --- | --- |
| CC(C)n1cncc(-c2ccc(C3(NC(=O)c4nc5n(n4)[C@H](c4ccccc4)CC5)CC3)cc2)c1=O [Compound 16] | 8.15 |
| CC(C)n1cncc(-c2ccc(C3(NC(=O)c4ncn(Cc5ccccc5)n4)CC3)cc2)c1=O [Compound 17] | 7.60 |
| Cn1cncc(-c2ccc(C3(NC(=O)c4nnc(Cc5c(F)cccc5F)[nH]4)CC3)cc2)c1=O [Compound 18] | 5.76 |
| CC(C)n1cncc(-c2ccc(C3(NC(=O)c4ncc5cnn(-c6ccccc6)c5n4)CC3)cc2)c1=O [Compound 19] | 7.21 |
| CC(C)Cc1nc(C(=O)NC2(c3ccc(-c4cncn(C(C)C)c4=O)cc3)CC2)ncc1Cl [Compound 22] | 7.55 |
| CC(C)n1ncc2cnc(C(=O)NC3(c4ccc(-c5cncn(C)c5=O)c(F)c4)CC3)nc21 [Compound 23, N-(1-(3-fluoro-4-(1-methyl-6-oxo-1,6-dihydropyrimidin-5-yl)phenyl)cyclopropyl)-1-isopropyl-1H-pyrazolo[3,4-d]pyrimidine-6-carboxamide] | 5.57 |
| CC(C)n1ncc2cnc(C(=O)NC3(c4ccc(-c5cncn(C)c5=O)c(Cl)c4)CC3)nc21 [Compound 25] | 5.12 |
| CC(C)n1ncc2cnc(C(=O)NC3(c4ccc(-c5cncn(C)c5=O)cc4F)CC3)nc21 [Compound 26] | 6.07 |
| CC(C)n1ncc2cnc(C(=O)NC3(c4ccc(-c5cncn(C)c5=O)cc4)CC3)cc21 [Compound 28, 1-isopropyl-N-(1-(4-(1-methyl-6-oxo-1,6-dihydropyrimidin-5-yl)phenyl)cyclopropyl)-1H-pyrazolo[4,3-c]pyridine-6-carboxamide] | 5.24 |
| CC(C)n1cncc(-c2ccc(C3(NC(=O)c4ncc5cnn(C(C)C)c5n4)CC3)cc2)c1=O [Compound 29, 1-isopropyl-N-(1-(4-(1-isopropyl-6-oxo-1,6-dihydropyrimidin-5-yl)phenyl)cyclopropyl)-1H-pyrazolo[3,4-d]pyrimidine-6-carboxamide] | 7.47 |
| CC(C)n1ncc2cnc(C(=O)NC3(c4ccc(-c5cnc(N)n(C)c5=O)cc4)CC3)nc21 [Compound 30] | 5.59 |
| CC(C)n1cncc(-c2ccc(C3(NC(=O)c4ncc5cnn(C(C)C)c5n4)CC3)cc2Cl)c1=O [Compound 33] | 6.18 |
| CC(C)n1cncc(-c2ccc(C3(NC(=O)c4ncc5cnn(C(C)C)c5n4)CC3)c(F)c2)c1=O [Compound 34] | 7.11 |
| CC(C)n1cncc(-c2ccc(C3(NC(=O)c4ncc5cnn(C(C)C)c5n4)CC3)cc2F)c1=O [Compound 35] | 6.81 |
| CC(C)n1ncc2cnc(C(=O)NC3(c4ccc(-c5cncn(CC6CC6)c5=O)cc4)CC3)nc21 [Compound 36] | 7.08 |
| CCn1cncc(-c2ccc(C3(NC(=O)c4ncc5cnn(C(C)C)c5n4)CC3)cc2)c1=O [Compound 37] | 6.73 |
| CC(C)n1ncc2cnc(C(=O)NC3(c4ccc(-c5cncn(CC(F)(F)F)c5=O)cc4)CC3)nc21 [Compound 38] | 6.82 |
| CC(C)n1ncc2cnc(C(=O)NC3(c4ccc(-c5cncn([C@H](C)C(F)(F)F)c5=O)cc4)CC3)nc21 [Compound 39] | 7.23 |
| CC(C)n1ncc2cnc(C(=O)NC3(c4ccc(-c5cncn([C@@H](C)C(F)(F)F)c5=O)cc4)CC3)nc21 [Compound 40] | 6.96 |
